According to patent US9284368B2, “Substituted pyrazines as cadherin-11 inhibitors” (Georgetown University, priority 2009, dated 2016):
“Also recorded” adds a separate entry of the source.

Assays:
[1] = target: T1, cadherin-11 (Homo sapiens, UniProt P55287); assay: Initial functional screening of in silico hits for block of cadherin-11 function; format: cell-based; conditions: in vitro screening of commercially purchased in silico hits
T1 construct: Endogenous cadherin-11 expression in MDA-MB-231 breast and PC-3 prostate cancer cells was knocked down; endogenous in cells; host or cells: MDA-MB-231 breast cancer cells (PC-3 partly)
T1 sequence (P55287 54-796): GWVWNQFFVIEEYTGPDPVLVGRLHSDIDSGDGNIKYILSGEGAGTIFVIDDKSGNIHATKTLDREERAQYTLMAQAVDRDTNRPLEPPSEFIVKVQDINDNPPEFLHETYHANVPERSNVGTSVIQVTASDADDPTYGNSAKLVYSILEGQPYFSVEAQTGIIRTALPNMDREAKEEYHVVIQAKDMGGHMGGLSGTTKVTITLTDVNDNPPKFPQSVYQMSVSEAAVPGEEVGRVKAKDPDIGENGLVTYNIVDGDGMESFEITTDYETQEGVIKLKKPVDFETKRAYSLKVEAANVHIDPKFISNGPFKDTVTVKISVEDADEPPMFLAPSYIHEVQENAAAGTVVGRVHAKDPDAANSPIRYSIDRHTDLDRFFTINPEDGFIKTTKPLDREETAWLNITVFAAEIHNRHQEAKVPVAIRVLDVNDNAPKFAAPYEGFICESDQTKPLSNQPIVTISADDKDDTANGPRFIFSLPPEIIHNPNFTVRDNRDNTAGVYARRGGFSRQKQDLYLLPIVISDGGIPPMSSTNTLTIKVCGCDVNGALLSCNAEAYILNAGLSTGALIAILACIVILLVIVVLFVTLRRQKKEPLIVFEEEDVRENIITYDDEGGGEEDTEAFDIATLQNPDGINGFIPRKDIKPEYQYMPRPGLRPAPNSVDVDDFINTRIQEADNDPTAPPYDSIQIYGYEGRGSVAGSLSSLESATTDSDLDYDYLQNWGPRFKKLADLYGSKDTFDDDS
Description: These two pharmacophores were further refined and screened again to maximize solubility and then retested using various in vitro assays. […] Finally, it was also observed that the compound was not cytotoxic up to a 100 μM dosage in vitro, as well as a pilot study in nude mice.
Cadherin-11 association with certain poor prognosis cancers, proliferation of basal-type breast cancer cells, and tumorigenesis in mice make it a viable therapeutic target for these malignancies. […] A computer-based method of structural modeling was used to predict conformations capable of binding these specific hydrophobic pockets. The ectodomain1 (EC1) dimer adhesive interface is formed by exchange of N-terminal β strands between two cadherin-11 molecules. The dimer interface has a large hydrophobic region (unique to type II cadherins) with two conserved tryptophan residues. […] This structure was used to base molecular simulations and produce pharmacophores designed to block one or both of the two adjacent regions (P1 and P2) predicted necessary for cadherin-11 function in cell-cell adhesion. Three in-silico strategies were implemented: 1) generation of flexible receptor conformations, 2) receptor-based dynamic pharmacophore screening and 3) small molecule docking simulations. The 29 most promising candidates identified by in silico screen were subjected to free energy simulations at 100 picosecond intervals, taking into consideration the induced fit effect, which accounts for conformation flexibility both before and after binding/docking simulations. […] These 29 compounds were purchased commercially and tested. Many of the compounds initially screened inhibited cadherin-11 function at 10 μM range, attesting to the in silico screening efficiency. […] The potency of Compound 1 likely stems from its shape and moderate structural flexibility, enabling it to accommodate to and bind tightly within the tryptophan binding pocket. Though this pocket is largely hydrophobic, a network of hydrogen bonds between Compound 1 and R23, H25, P88, S90 confers specificity and rigid binding. […]

[2] = test system: L-cells with stably-transfected cadherin-11; assay: Cell aggregation assay, cadherin-11 transfected L-cells; format: cell-based; conditions: cadherin-11 L-cells, shaken one hour at 100 rpm
Description: (§1) Cell aggregation assays were performed on L-cells with stably-transfected empty vector or cadherin-11. The cells were seeded and grown overnight, trypsinized with additional EDTA, resuspended in DMEM with 20% FBS, and counted. The cells were spun down and resuspended in DMEM containing no treatment, 0.5 mM EDTA, 0.25 mM EDTA, 0.1 mM EDTA, or cadherin-11 inhibitors including 1 TM of Compound 1 (Sd-133), 1 TM of Compound 2 (Sd-133A), 1 TM of Compound 3 (Sd-133B), 1 TM of Compound 11 (Sd-12), 1 TM of Compound 12 (Sd-48), 1 TM of Compound 17 (Sd-20), 1 TM of Compound 18 (Sd-51), 1 TM of Compound 19 (Sd-22), or 1 TM of Compound 20 (Sd-23). The cells were allowed to recover for one hour and were then put into uncoated 12 well plates and shaken for one hour at 100 rpm at 2.25×10^5 cells/mL. The cells were then counted using Microsizer Coulter Counter (Beckman Coulter, Inc; Brea, Calif.). Counts over 20 uM in length were considered aggregates, while counts below 20 uM were considered as single cells. The counts were confirmed by manual counting.

[3] = test system: L-cells with stably-transfected empty vector; assay: Cell aggregation assay, empty vector L-cells; format: cell-based; conditions: shaken one hour at 100 rpm
Description: as §1

[4] = test system: MDA-MB-231 breast cancer cells; assay: Proliferation assay (crystal violet / luminescence); format: cell-based; conditions: MDA-MB-231 cells, 100 nM
Description: (§2) For crystal violet assays, cells were plated in triplicate in 96-well tissue culture dishes at 4 separate densities. Cells were grown in DMEM supplemented with 5% fetal bovine serum for a period of 5 days. Dishes representing growth were stained with crystal violet on Days 1, 3 and 5 after plating, by removing growth medium, staining with 50 μL of crystal violet stain for 10 min, then gently washing in dH2O and allowing to dry overnight. Stained cells were solubilized in 100 μL 50/50 (v/v) 0.1M sodium citrate and ethanol for 15 min, and absorbance was read at 630λ.
(§3) For luminescence, the cells were plated in triplicate in 24-well white-walled tissue culture dishes (Wallac; Waltham, Mass.) and grown in DMEM supplemented with 5% fetal bovine serum for 5 days. On the fifth day, the cells were resuspended in an equal volume of Cell-Titer-Glo Luminescence Reagent (Promega; Madison, Wis.), which measures ATP, and incubated for 20 min at room temperature. The assay was measured using luminescence.
(§4) Cells were plated in triplicate at four separate densities and grown in DMEM with 5% FBS for five days. Cells were stained with crystal violet on days 1, 3, and 5 after plating, as described in Example 5. Absorbance was read at 630λ using a BioRad Ultramark Microplate Imaging System with Microplate Manager 5.1 software. […]

[5] = test system: MDA-MB-231 breast cancer cells; assay: Soft agar colony growth assay; format: cell-based; conditions: MDA-MB-231 cells, 100 nM
Description: To further characterize proliferative ability of cancer cells lacking cadherin-11, anchorage independent growth was studied in the stable cell lines. 6-well tissue culture dishes were coated with 1.2 mL 0.6% Bacto-agar (Difco; Franklin Lakes, N.J.) in DMEM supplemented with 5% fetal bovine serum. Once set, the cells were plated in triplicate in 0.3% agar (15,000/1 mL in each well) and layered gently on top of the coated agar. The plates were incubated for 10 days to 2 weeks prior to reading using a colony counter (Omnicon; Manassas, Va.) and visualized using a SMZ-1500 stereoscope (Nikon; Tokyo, JP).
as §3, with “as described above.” for “and grown in DMEM supplemented with 5% fetal bovine serum for 5 days.”, “final” for “fifth”, “day,” for “day, the”
Cells (5,000) were plated in 0.3% agar layered on top of 0.6% agar in 35-mm^2 plates. After 2 weeks, the colonies were counted in an Omnicon 3600 automated colony counter (BioLogics, Inc.; Manassas, Va.) and visualized using a SMZ-1500 stereoscope (Nikon; Tokyo, JP). Confirmation assays were completed in 24-well dishes and analyzed using Cell-Titer-Glo Reagent (see proliferation assays).

[6] = test system: MCF7 breast cancer cells; assay: Matrigel outgrowth (invasion) assay; format: cell-based; conditions: MCF7 breast cancer cells (expressing E and P-cadherin), 1 μM and 10 μM
Description: (§5) Upon finding significant differences in growth and migration in cancer cells with reduced cadherin-11 expression, invasive capability of the stable cell lines was explored in a 3-dimensional matrix. The cells were plated in duplicate in a 12-well glass-bottom dish (MatTek; Ashland, Mass.) coated with 150 μL of Matrigel (BD Biosciences; San Jose, Calif.). The cells (5,000 cells/100 μl medium) were gently plated on top of the Matrigel layer directly and incubated 30 min at 37° C. Growth medium (1 mL) was gently added to each well, and growth was visualized using a 5× objective on an AH2 Vanox inverted microscope (Olympus; Tokyo, JP) equipped with a CCD camera.
(§6) Cells (5,000 cells/100 μl medium) were plated atop 150 μL layer of Matrigel (BD Biosciences; San Jose, Calif.) in duplicate in 12-well glass-bottom dishes (MatTek; Ashland, Mass.) and incubated for 30 minutes at 37° C. Growth medium (1 mL) was gently added to each well. Growth was visualized using a 5× objective on AH2 Vanox inverted microscope (Olympus; Tokyo, JP).

[7] = test system: MDA-MB-231 breast cancer cells; assay: Matrigel outgrowth (invasion) assay; format: cell-based; conditions: MDA-MB-231 cells, 100 nM
Description: as §5, §6

[8] = test system: MDA-MB-435 melanoma cells; assay: Matrigel outgrowth (invasion) assay; format: cell-based; conditions: MDA-MB-435 melanoma cells (expressing N-cadherin), 1 μM and 10 μM
Description: as §5, §6

[9] = test system: MCF7 breast cancer cells; assay: Proliferation assay; format: cell-based; conditions: MCF7 breast cancer cells (expressing E and P-cadherin), 1 μM and 10 μM
Description: as §2, §3, §4

[10] = test system: MDA-MB-435 melanoma cells; assay: Proliferation assay; format: cell-based; conditions: MDA-MB-435 melanoma cells (expressing N-cadherin), 1 μM and 10 μM
Description: as §2, §3, §4

[11] = Cytotoxicity in vitro; format: cell-based; conditions: up to a 100 μM dosage in vitro
[12] = In vivo acute toxicity (OECD Up-and-Down Procedure); conditions: mouse, female Balb/c mice, IP injection, observed for 14 days
Description: Female Balb/c mice, 8-12 weeks old, were obtained from the National Cancer Institute (Bethesda, Md.). A stock solution of 200 mg/ml of Compound 1 was prepared with a 1:1 ratio of DMSO and PEG. The working solution was diluted with PEG. Compound 1 (Sd-133) was administered at a constant volume (0.01 ml/1 g body weight) over the range of doses to be tested by varying the concentration of the dosing preparation according to the OECD Acute Toxicity-Up-and Down Procedure. […] Observations included toxicity onset time, symptoms, duration and the time elapsed for recovery or death. Based on the study, the LD50 of Compound 1 was estimated at 2000 mg/kg.

[13] = test system: PC-3 prostate cancer cells; assay: Growth phenotypes in PC-3 cells; format: cell-based
[14] = test system: nude mice; assay: Pilot toxicity study in nude mice; format: in vivo

O=C1c2ccccc2C(=O)c2c1oc1ccc3ccccc3c21 [Compound 9]
concentration range at which cadherin-11 is functionally blocked (effective range) [1]: nanomolar ranges

Oc1ccc2c(c1)c1ccccc1c1ncccc21 [Compound 10]
concentration range at which cadherin-11 is functionally blocked (effective range) [1]: nanomolar ranges

Oc1ccc(-c2nc3ccccc3nc2-c2ccccc2)cc1 [Compound 3]
aggregate formation [2]: decrease | aggregate formation [3]: remained stable

Oc1ccc(-c2nc3ccccc3nc2-c2cccc(Cl)c2)cc1 [Compound 2]
aggregate formation [2]: decrease | aggregate formation [3]: remained stable

Oc1ccc(-c2cccnc2-c2ccccc2)cc1 [Compound 1]
cell proliferation [4]: significantly blocked; also recorded: significantly inhibited | concentration range at which cadherin-11 is functionally blocked (effective range) [1]: nanomolar ranges | colony growth [5]: significantly blocked; also recorded: significantly inhibited | invasion [6]: fails to block; also recorded: failed to alter | invasion [7]: significantly blocked; also recorded: significantly inhibited | invasion [8]: fails to block; also recorded: failed to alter | proliferation [9]: fails to block; also recorded: failed to alter | proliferation [10]: fails to block; also recorded: failed to alter | cytotoxicity [11]: not cytotoxic | LD50 at 14 days [12]: 2000 mg/kg | growth phenotypes [13]: partially inhibited | cytotoxicity [14]: not cytotoxic
